# Data reported in paper PMC11062899, “De novo development of small cyclic peptides that are orally bioavailable” (Nature Chemical Biology, 2023).
# Values joined by “and” are separate entries in the source; they are usually repeats but may differ in a detail not shown here. Equal entries are not always repeated. Where two headings read alike, the source gives them in different places.
# Legend:
# human α-thrombin = human α-thrombin (Homo sapiens, UniProt P00734); assay: Protease inhibition, Ki for human α-thrombin (fluorogenic substrate Z-Gly-Gly-Arg-AMC); type: biochemical; settings: for Human alpha thrombin inhibition, slope normalized to DMSO: replicates R1-R3
# Procedure, shortened: (§1)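 Ki values come from Cheng–Prusoff correction of IC50, itself fitted by four-parameter logistic regression of activity versus a no-peptide control. Assays used 2 nM human or 3 nM rat thrombin, 50 μM Z-Gly-Gly-Arg-AMC, 30 min kinetic fluorescence at 25 °C.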
# rat α-thrombin = biological target: T1, rat α-thrombin (Rattus norvegicus, UniProt P18292); assay: Protease inhibition, Ki for rat α-thrombin (fluorogenic substrate Z-Gly-Gly-Arg-AMC); type: biochemical; settings: for Rat alpha thrombin inhibition, slope normalized to DMSO: replicates R1-R3
# T1 construct: rat α-thrombin (Molecular Innovations) were used at final concentrations of 2 nM and 3 nM; purchased Molecular Innovations
# Procedure, shortened: as §1
# [1] = Passive artificial membrane permeability (PAMPA);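 as to Permeability% Average: top well sample relative to theoretical equilibrium sample by TIC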
# [2] = peptide concentration 1.00E+02 uM
# [3] = peptide concentration 1.19E-05 uM
# [4] = peptide concentration 1.22E-02 uM
# [5] = peptide concentration 1.25E+01 uM
# [6] = peptide concentration 1.53E-03 uM
# [7] = peptide concentration 1.56E+00 uM
# [8] = peptide concentration 1.91E-04 uM
# [9] = peptide concentration 1.95E-01 uM
# [10] = peptide concentration 2.38E-05 uM
# [11] = peptide concentration 2.44E-02 uM
# [12] = peptide concentration 2.50E+01 uM
# [13] = peptide concentration 3.05E-03 uM
# [14] = peptide concentration 3.12E+00 uM
# [15] = peptide concentration 3.81E-04 uM
# [16] = peptide concentration 3.91E-01 uM
# [17] = peptide concentration 4.77E-05 uM
# [18] = peptide concentration 4.88E-02 uM
# [19] = peptide concentration 5.00E+01 uM
# [20] = peptide concentration 6.10E-03 uM
# [21] = peptide concentration 6.25E+00 uM
# [22] = peptide concentration 7.63E-04 uM
# [23] = peptide concentration 7.81E-01 uM
# [24] = peptide concentration 9.54E-05 uM
# [25] = peptide concentration 9.77E-02 uM
structure (smiles),measurement,setting,value
O=C1C[C@H]2CCCN2C(=O)[C@H](Cc2ccccc2)NC(=O)[C@@H](NC(=O)c2ccc(Cl)s2)CC=CCCCN1 [compound 40],Ki,"human α-thrombin; average of R1-R3, read-out: Human alpha thrombin inhibition, Ki Average",3780 nM
same,"Human alpha thrombin inhibition, slope normalized to DMSO",human α-thrombin; [2],24.9 and 25.0 and 20.5
same,"Human alpha thrombin inhibition, slope normalized to DMSO",human α-thrombin; [3],103.5 and 123.5 and 102.0
same,"Human alpha thrombin inhibition, slope normalized to DMSO",human α-thrombin; [4],106.6 and 86.5 and 61.9
same,"Human alpha thrombin inhibition, slope normalized to DMSO",human α-thrombin; [5],42.7 and 42.4 and 47.7
same,"Human alpha thrombin inhibition, slope normalized to DMSO",human α-thrombin; [6],60.4 and 64.9 and 105.1
same,"Human alpha thrombin inhibition, slope normalized to DMSO",human α-thrombin; [7],69.9 and 77.6 and 68.9
same,"Human alpha thrombin inhibition, slope normalized to DMSO",human α-thrombin; [8],105.9 and 100.1 and 65.2
same,"Human alpha thrombin inhibition, slope normalized to DMSO",human α-thrombin; [9],62.1 and 70.8 and 60.8
same,"Human alpha thrombin inhibition, slope normalized to DMSO",human α-thrombin; [10],104.8 and 103.3 and 108.6
same,"Human alpha thrombin inhibition, slope normalized to DMSO",human α-thrombin; [11],60.0 and 97.7 and 99.0
same,"Human alpha thrombin inhibition, slope normalized to DMSO",human α-thrombin; [12],33.7 and 37.4 and 37.6
same,"Human alpha thrombin inhibition, slope normalized to DMSO",human α-thrombin; [13],90.7 and 95.7 and 101.5
same,"Human alpha thrombin inhibition, slope normalized to DMSO",human α-thrombin; [14],61.5 and 74.1 and 46.2
same,"Human alpha thrombin inhibition, slope normalized to DMSO",human α-thrombin; [15],102.1 and 112.0 and 80.2
same,"Human alpha thrombin inhibition, slope normalized to DMSO",human α-thrombin; [16],89.5 and 72.3
same,"Human alpha thrombin inhibition, slope normalized to DMSO",human α-thrombin; [17],107.9 and 97.7 and 98.2
same,"Human alpha thrombin inhibition, slope normalized to DMSO",human α-thrombin; [18],58.9 and 84.7 and 96.6
same,"Human alpha thrombin inhibition, slope normalized to DMSO",human α-thrombin; [19],23.5 and 29.5 (2×)
same,"Human alpha thrombin inhibition, slope normalized to DMSO",human α-thrombin; [20],76.0 and 102.5 and 99.2
same,"Human alpha thrombin inhibition, slope normalized to DMSO",human α-thrombin; [21],68.9 and 63.0 and 35.5
same,"Human alpha thrombin inhibition, slope normalized to DMSO",human α-thrombin; [22],61.7 and 101.5 and 87.5
same,"Human alpha thrombin inhibition, slope normalized to DMSO",human α-thrombin; [23],99.5 and 72.0 and 89.1
same,"Human alpha thrombin inhibition, slope normalized to DMSO",human α-thrombin; [24],106.0 and 103.1 and 118.2
same,"Human alpha thrombin inhibition, slope normalized to DMSO",human α-thrombin; [25],62.3 and 75.9 and 55.0
same,Ki,"rat α-thrombin; average of R1-R3, read-out: Rat alpha thrombin inhibition, Ki Average",1480 nM
same,"Rat alpha thrombin inhibition, slope normalized to DMSO",rat α-thrombin; [2],8.5 and 10.5 and 9.7
same,"Rat alpha thrombin inhibition, slope normalized to DMSO",rat α-thrombin; [3],107.2 and 105.4 and 103.1
same,"Rat alpha thrombin inhibition, slope normalized to DMSO",rat α-thrombin; [4],105.9 and 100.2 and 97.5
same,"Rat alpha thrombin inhibition, slope normalized to DMSO",rat α-thrombin; [5],28.9 and 25.6 and 11.1
same,"Rat alpha thrombin inhibition, slope normalized to DMSO",rat α-thrombin; [6],104.7 and 100.1 and 100.7
same,"Rat alpha thrombin inhibition, slope normalized to DMSO",rat α-thrombin; [7],60.2 and 60.7 and 63.3
same,"Rat alpha thrombin inhibition, slope normalized to DMSO",rat α-thrombin; [8],101.0 and 93.6 and 80.4
same,"Rat alpha thrombin inhibition, slope normalized to DMSO",rat α-thrombin; [9],77.4 and 91.6 and 90.6
same,"Rat alpha thrombin inhibition, slope normalized to DMSO",rat α-thrombin; [10],99.9 and 95.1 and 101.1
same,"Rat alpha thrombin inhibition, slope normalized to DMSO",rat α-thrombin; [11],106.7 and 94.6 and 110.9
same,"Rat alpha thrombin inhibition, slope normalized to DMSO",rat α-thrombin; [12],3.6 and 15.7 and 17.5
same,"Rat alpha thrombin inhibition, slope normalized to DMSO",rat α-thrombin; [13],104.4 and 102.5 and 99.7
same,"Rat alpha thrombin inhibition, slope normalized to DMSO",rat α-thrombin; [14],54.9 and 53.5 and 52.8
same,"Rat alpha thrombin inhibition, slope normalized to DMSO",rat α-thrombin; [15],103.0 and 99.2 and 100.1
same,"Rat alpha thrombin inhibition, slope normalized to DMSO",rat α-thrombin; [16],58.4 and 57.7 and 87.4
same,"Rat alpha thrombin inhibition, slope normalized to DMSO",rat α-thrombin; [17],109.2 and 85.2 and 99.3
same,"Rat alpha thrombin inhibition, slope normalized to DMSO",rat α-thrombin; [18],100.3 and 95.3 and 106.1
same,"Rat alpha thrombin inhibition, slope normalized to DMSO",rat α-thrombin; [19],16.0 and 15.4 and 14.7
same,"Rat alpha thrombin inhibition, slope normalized to DMSO",rat α-thrombin; [20],102.6 and 94.5 and 101.1
same,"Rat alpha thrombin inhibition, slope normalized to DMSO",rat α-thrombin; [21],50.1 and 39.5 and 38.6
same,"Rat alpha thrombin inhibition, slope normalized to DMSO",rat α-thrombin; [22],102.8 and 105.9 and 89.3
same,"Rat alpha thrombin inhibition, slope normalized to DMSO",rat α-thrombin; [23],79.5 and 71.2 and 76.6
same,"Rat alpha thrombin inhibition, slope normalized to DMSO",rat α-thrombin; [24],103.0 and 96.4 and 84.9
same,"Rat alpha thrombin inhibition, slope normalized to DMSO",rat α-thrombin; [25],100.1 and 93.3 and 83.6
same,IC50,"rat α-thrombin; single replicates R1-R3, read-out: Rat alpha thrombin inhibition, IC50",2600 nM and 2780 nM and 2670 nM
same,Ki,"rat α-thrombin; single replicates R1-R3, read-out: Rat alpha thrombin inhibition, Ki",1.44 µM (2×) and 1.54 µM (2×) and 1.48 µM (2×)
same,PAMPA permeability: % permeability,"[1]; 50 μM, 12–18 h, acceptor concentration relative to equilibrium",42 ± 11%
same,Permeability% (single replicates R1–R3),"[1]; 50 μM, 13 h (Fig. 5d)",47.12% and 50.47% and 29.38%
same,Permeability% Average,"[1]; 50 μM, 13 h (Fig. 5d)",42.3%
same,Papp at 50 μM,"[1]; PAMPA, pH 7.4",4.9 ×10⁻⁶ cm/s
